Test results as given in US10906915B2, “Substituted pyrazoloazepin-4-ones and their use as phosphodiesterase inhibitors” (LEO Pharma A/S, priority 2016, dated 2021).
pIC50: −log10 of the molar value. Where two headings read alike, the source gives them in different places.

Target: human PDE4D catalytic domain (UniProt no. Q08499) (Homo sapiens (Human), UniProt Q08499)
Experiment: PDE4 assay (TR-FRET, FAM-cAMP cleavage)
Assay type: biochemical
Conditions: read-out: PDE4 IC50 range
Summary of the method: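 Read-out is time-resolved FRET from Tb donor to FAM-AMP captured on trivalent-metal nanoparticles added to stop the reaction. Substrate was a mix of plain and FAM-labelled cAMP, cleaved by human PDE4D catalytic domain ([…]) with titrated compound; IC50 ranges (nM) versus controls.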

[1] = human PDE4D catalytic domain, molar concentration giving 50% inhibition of substrate cleavage

Sequence of human PDE4D catalytic domain (Q08499 380-740 limits assumed): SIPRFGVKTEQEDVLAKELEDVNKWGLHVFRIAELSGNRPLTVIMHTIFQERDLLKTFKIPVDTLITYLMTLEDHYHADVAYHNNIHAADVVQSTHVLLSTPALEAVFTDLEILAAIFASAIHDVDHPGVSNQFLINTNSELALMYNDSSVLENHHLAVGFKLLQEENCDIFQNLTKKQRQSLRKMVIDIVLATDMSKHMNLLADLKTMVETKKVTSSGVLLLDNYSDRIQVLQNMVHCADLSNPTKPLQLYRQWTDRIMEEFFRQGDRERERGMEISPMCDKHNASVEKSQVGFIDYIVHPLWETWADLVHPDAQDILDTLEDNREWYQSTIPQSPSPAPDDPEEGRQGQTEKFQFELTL

`CCOc1cccc(C(=O)OCCCn2nc(CC)c3c2CC2(CCOCC2)CNC3=O)c1` [Example 61, 3-(3-ethyl-4-oxo-spiro[6,8-dihydro-5H-pyrazolo[4,3-c]azepine-7,4′-tetrahydropyran]-1-yl)propyl 3-ethoxybenzoate] gave a pIC50 [1] of over 7.00.
`CCc1nn(C[C@@H](C)COC(=O)c2ccc(C(F)(F)F)c(OC)c2)c2c1C(=O)NCC1(CCOCC1)C2` [Example 233, [(2R)-3-(3-ethyl-4-oxo-spiro[6,8-dihydro-5H-pyrazolo[4,3-c]azepine-7,4′-tetrahydropyran]-1-yl)-2-methyl-propyl] 3-methoxy-4-(trifluoromethyl)benzoate] showed a pIC50 [1] of over 7.00.
Work on `CCc1nn(CCCOC(=O)c2ccc(F)c(C#N)c2)c2c1C(=O)NCC1(CCOCC1)C2` [Example 55, 3-(3-ethyl-4-oxo-spiro[6,8-dihydro-5H-pyrazolo[4,3-c]azepine-7,4′-tetrahydropyran]-1-yl)propyl 3-cyano-4-fluoro-benzoate] yielded a pIC50 [1] of over 7.00.
Work on `CCNC(=O)c1cccc(C(=O)OC[C@H](C)Cn2nc(CC)c3c2CC2(CCOCC2)CNC3=O)c1` [Example 265, [(2R)-3-(3-ethyl-4-oxo-spiro[6,8-dihydro-5H-pyrazolo[4,3-c]azepine-7,4′-tetrahydropyran]-1-yl)-2-methyl-propyl] 3-(ethylcarbamoyl)benzoate] yielded a pIC50 of over 7.00.
`CCc1nn(CCCOC(=O)c2cc(OC)cc(C(F)(F)F)c2)c2c1C(=O)NCC1(CCOCC1)C2` [Example 120, 3-(3-ethyl-4-oxo-spiro[6,8-dihydro-5H-pyrazolo[4,3-c]azepine-7,4′-tetrahydropyran]-1-yl)propyl 3-methoxy-5-(trifluoromethyl)benzoate] gave a pIC50 [1] of over 7.00.
Molecule `CCc1nn(CC(C)(C)COC(=O)c2cccc(C(=O)NC(C)C)c2)c2c1C(=O)NCC1(CCOCC1)C2` [Example 343, [3-(3-ethyl-4-oxo-spiro[6,8-dihydro-5H-pyrazolo[4,3-c]azepine-7,4′-tetrahydropyran]-1-yl)-2,2-dimethyl-propyl] 3-(isopropylcarbamoyl)-benzoate] has a pIC50 of over 7.00.
For `CCc1nn(C[C@@H](C)COC(=O)c2cc(F)cc(C(F)(F)F)c2)c2c1C(=O)NCC1(CCOCC1)C2` [Example 225, [(2R)-3-(3-ethyl-4-oxo-spiro[6,8-dihydro-5H-pyrazolo[4,3-c]azepine-7,4′-tetrahydropyran]-1-yl)-2-methyl-propyl] 3-fluoro-5-(trifluoromethyl)benzoate], the pIC50 [1] was over 7.00.
With `CCc1nn(CC(C)(C)COC(=O)c2ccc(C(=O)N3CCN(C(C)=O)CC3)cc2)c2c1C(=O)NCC1(CCOCC1)C2` [Example 338, [3-(3-ethyl-4-oxo-spiro[6,8-dihydro-5H-pyrazolo[4,3-c]azepine-7,4′-tetrahydropyran]-1-yl)-2,2-dimethyl-propyl] 4-(4-acetylpiperazine-1-carbonyl)benzoate] the pIC50 was over 7.00.
`CCc1nn(CCCOC(=O)c2ccc(F)cc2C)c2c1C(=O)NCC1(CCOCC1)C2` [Example 38, 3-(3-ethyl-4-oxo-spiro[6,8-dihydro-5H-pyrazolo[4,3-c]azepine-7,4′-tetrahydropyran]-1-yl)propyl 4-fluoro-2-methyl-benzoate] was tested, and the pIC50 [1] was over 7.00.
With `CCc1nn(C[C@@H](C)COC(=O)c2ccc(Cl)cc2F)c2c1C(=O)NCC1(CCOCC1)C2` [Example 205, [(2R)-3-(3-ethyl-4-oxo-spiro[6,8-dihydro-5H-pyrazolo[4,3-c]azepine-7,4′-tetrahydropyran]-1-yl)-2-methyl-propyl] 4-chloro-2-fluoro-benzoate] the pIC50 [1] was over 7.00.
For `CCc1nn(CCCOC(=O)c2ccccc2C#N)c2c1C(=O)NCC1(CCOCC1)C2` [Example 25, 3-(3-ethyl-4-oxo-spiro[6,8-dihydro-5H-pyrazolo[4,3-c]azepine-7,4′-tetrahydropyran]-1-yl)propyl 2-cyanobenzoate], the pIC50 [1] was over 7.00.
Molecule `CCc1nn(C[C@@H](C)COC(=O)c2cccc(C(=O)N3CCCCC3)c2)c2c1C(=O)NCC1(CCOCC1)C2` [Example 269, [(2R)-3-(3-ethyl-4-oxo-spiro[6,8-dihydro-5H-pyrazolo[4,3-c]azepine-7,4′-tetrahydropyran]-1-yl)-2-methyl-propyl] 3-(piperidine-1-carbonyl)benzoate] has a pIC50 of over 7.00.
For `CCc1nn(C[C@@H](C)COC(=O)c2ccc(F)cc2OC)c2c1C(=O)NCC1(CCOCC1)C2` [Example 195, [(2R)-3-(3-ethyl-4-oxo-spiro[6,8-dihydro-5H-pyrazolo[4,3-c]azepine-7,4′-tetrahydropyran]-1-yl)-2-methyl-propyl] 4-fluoro-2-methoxy-benzoate], the pIC50 [1] was over 7.00.
Molecule `CCc1nn(CCCOC(=O)c2ccc(F)c(C)c2)c2c1C(=O)NCC1(CCOCC1)C2` [Example 35, 3-(3-ethyl-4-oxo-spiro[6,8-dihydro-5H-pyrazolo[4,3-c]azepine-7,4′-tetrahydropyran]-1-yl)propyl 4-fluoro-3-methyl-benzoate] has a pIC50 [1] of over 7.00.
Work on `CCc1nn(CCCOC(=O)c2cc(OC)ccc2Cl)c2c1C(=O)NCC1(CCOCC1)C2` [Example 90, 3-(3-ethyl-4-oxo-spiro[6,8-dihydro-5H-pyrazolo[4,3-c]azepine-7,4′-tetrahydropyran]-1-yl)propyl 2-chloro-5-methoxy-benzoate] yielded a pIC50 [1] of over 7.00.
For `CCc1nn(CC(C)(C)COC(=O)c2ccc(C(C)=O)cc2)c2c1C(=O)NCC1(CCOCC1)C2` [Example 295, [3-(3-ethyl-4-oxo-spiro[6,8-dihydro-5H-pyrazolo[4,3-c]azepine-7,4′-tetrahydropyran]-1-yl)-2,2-dimethyl-propyl] 4-acetylbenzoate], the pIC50 was over 7.00.
`CCc1nn(CC(C)(C)COC(=O)c2ccccc2Cl)c2c1C(=O)NCC1(CCOCC1)C2` [Example 292, [3-(3-ethyl-4-oxo-spiro[6,8-dihydro-5H-pyrazolo[4,3-c]azepine-7,4′-tetrahydropyran]-1-yl)-2,2-dimethyl-propyl] 2-chlorobenzoate] was tested, and the pIC50 was over 7.00.
`CCc1nn(C[C@@H](C)COC(=O)c2cccc(C(=O)NC(C)C)c2)c2c1C(=O)NCC1(CCOCC1)C2` [Example 267, [(2R)-3-(3-ethyl-4-oxo-spiro[6,8-dihydro-5H-pyrazolo[4,3-c]azepine-7,4′-tetrahydropyran]-1-yl)-2-methyl-propyl] 3-(isopropylcarbamoyl)benzoate] showed a pIC50 of over 7.00.
With `CCc1nn(CCCOC(=O)c2cccc(S(=O)(=O)CC)c2)c2c1C(=O)NCC1(CCOCC1)C2` [Example 114, 3-(3-ethyl-4-oxo-spiro[6,8-dihydro-5H-pyrazolo[4,3-c]azepine-7,4′-tetrahydropyran]-1-yl)propyl 3-ethylsulfonylbenzoate] the pIC50 [1] was over 7.00.
Molecule `CCc1nn(CCCOC(=O)c2ccc(C(F)(F)F)c(Cl)c2)c2c1C(=O)NCC1(CCOCC1)C2` [Example 125, 3-(3-ethyl-4-oxo-spiro[6,8-dihydro-5H-pyrazolo[4,3-c]azepine-7,4′-tetrahydropyran]-1-yl)propyl 3-chloro-4-(trifluoromethyl)benzoate] has a pIC50 [1] of over 7.00.
Molecule `CCc1nn(C[C@@H](C)COC(=O)c2ccc(S(=O)(=O)N3CCCC3)cc2)c2c1C(=O)NCC1(CCOCC1)C2` [Example 245, [(2R)-3-(3-ethyl-4-oxo-spiro[6,8-dihydro-5H-pyrazolo[4,3-c]azepine-7,4′-tetrahydropyran]-1-yl)-2-methyl-propyl] 4-pyrrolidin-1-ylsulfonylbenzoate] has a pIC50 [1] of over 7.00.
Molecule `CCc1nn(CCCOC(=O)c2ccc(C(N)=O)cc2)c2c1C(=O)NCC1(CCOCC1)C2` [Example 140, 3-(3-ethyl-4-oxo-spiro[6,8-dihydro-5H-pyrazolo[4,3-c]azepine-7,4′-tetrahydropyran]-1-yl)propyl 4-carbamoylbenzoate] has a pIC50 [1] of over 7.00.
`CCc1nn(C[C@H](C)COC(=O)c2cccc(F)c2)c2c1C(=O)NCC1(CCOCC1)C2` [Example 276, [(2S)-3-(3-ethyl-4-oxo-spiro[6,8-dihydro-5H-pyrazolo[4,3-c]azepine-7,4′-tetrahydropyran]-1-yl)-2-methyl-propyl] 3-fluorobenzoate] gave a pIC50 of over 7.00.
`CCc1nn(C[C@@H](C)COC(=O)c2ccc(C(F)(F)F)cc2F)c2c1C(=O)NCC1(CCOCC1)C2` [Example 221, [(2R)-3-(3-ethyl-4-oxo-spiro[6,8-dihydro-5H-pyrazolo[4,3-c]azepine-7,4′-tetrahydropyran]-1-yl)-2-methyl-propyl] 2-fluoro-4-(trifluoromethyl)benzoate] showed a pIC50 [1] of over 7.00.
For `CCc1nn(CCCOC(=O)C2CCCC2)c2c1C(=O)NCC1(CCOCC1)C2` [Example 9, 3-(3-ethyl-4-oxo-spiro[6,8-dihydro-5H-pyrazolo[4,3-c]azepine-7,4′-tetrahydropyran]-1-yl)propyl cyclopentanecarboxylate], the pIC50 [1] was over 7.00.
With `CCc1nn(CCCOC(=O)c2ccc(OC)cc2)c2c1C(=O)NCC1(CCOCC1)C2` [Example 28, 3-(3-ethyl-4-oxo-spiro[6,8-dihydro-5H-pyrazolo[4,3-c]azepine-7,4′-tetrahydropyran]-1-yl)propyl 4-methoxybenzoate] the pIC50 [1] was over 7.00.
For `CCc1nn(C[C@@H](C)COC(=O)c2ccc(Cl)c(OC)c2)c2c1C(=O)NCC1(CCOCC1)C2` [Example 208, [(2R)-3-(3-ethyl-4-oxo-spiro[6,8-dihydro-5H-pyrazolo[4,3-c]azepine-7,4′-tetrahydropyran]-1-yl)-2-methyl-propyl] 4-chloro-3-methoxy-benzoate], the pIC50 [1] was over 7.00.
`CCc1nn(C[C@@H](C)COC(=O)C2CCCC2)c2c1C(=O)NCC1(CCOCC1)C2` [Example 161, [(2R)-3-(3-ethyl-4-oxo-spiro[6,8-dihydro-5H-pyrazolo[4,3-c]azepine-7,4′-tetrahydropyran]-1-yl)-2-methyl-propyl] cyclopentanecarboxylate] was tested, and the pIC50 [1] was over 7.00.
`CCc1nn(C[C@@H](C)COC(=O)c2ccc(C#N)cc2)c2c1C(=O)NCC1(CCOCC1)C2` [Example 168, [(2R)-3-(3-ethyl-4-oxo-spiro[6,8-dihydro-5H-pyrazolo[4,3-c]azepine-7,4′-tetrahydropyran]-1-yl)-2-methyl-propyl] 4-cyanobenzoate] gave a pIC50 [1] of over 7.00.
